In patent US9850283B2, “Macrocyclic inhibitors of the PD-1/PD-L1 and CD80(B7-1)/PD-L1 protein/protein interactions” (BRISTOL-MYERS SQUIBB COMPANY, priority 2013, dated 2017):
Read-outs that look alike come from different tables or passages of the source. Positions of bridges follow the written chain, without caps; N, C: chain ends. Non-standard residues stand in square brackets, D forms with d. Residues, ends and D or L forms follow the SMILES beside them. ξ: configuration not given here. Phe(3,4-(OMe)2) = COc1ccc(C[C@H](N)C(=O)O)cc1OC; Phe(3-F) = N[C@@H](Cc1cccc(F)c1)C(=O)O; Pro(5S-Me) = C[C@H]1CC[C@@H](C(=O)O)N1; Bta = N[C@@H](Cc1csc2ccccc12)C(=O)O; Hyp = O=C(O)[C@@H]1C[C@@H](O)CN1; NMeF = CN[C@@H](Cc1ccccc1)C(=O)O; dHyp = O=C(O)[C@H]1C[C@H](O)CN1; NMeNle = CCCC[C@H](NC)C(=O)O; NMeA = CN[C@@H](C)C(=O)O; Dap = NC[C@H](N)C(=O)O; ξC = NC(CS)C(=O)O; Sar = CNCC(=O)O

What was measured:
Human PD-L1/PD-1 = molecular target: T1, Human PD-L1/PD-1 (Homo sapiens, UniProt Q9NZQ7); experiment: HTRF PD-1-Ig/PD-L1-His binding assay (human PD-L1)
T1 construct: made in house; host or cells: HEK293T
Method in brief: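 Soluble PD-1-Ig binding to PD-L1-His measured by HTRF in dPBS with 0.1% BSA and 0.05% Tween-20. Detection used europium cryptate anti-Ig antibody (1 nM final) and APC anti-His antibody (20 nM final) added on top of the binding reaction.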

[1] = molecular target: T2, LK35.2-hPD-L1 cells / PE-labeled PD-1-Ig (Homo sapiens, UniProt Q9NZQ7); experiment: LK35.2-hPD-L1 cell binding high-content screening assay; format: cell-based
T2 construct: expressed in transfected cells; host or cells: LK35.2 mouse B cell line
Method in brief: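 Mouse LK35.2 B cells stably over-expressing human PD-L1, cultured overnight, treated with compound plus PE-labeled human PD-1-Ig (1 nM final) in RPMI/10% FCS for 1 h at 37 °C. After washing, bound fluorescence quantified by high-content imaging.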

[2] = cluster symbol, read-out: HTRF IC50 cluster
[3] = cell binding assay, cell line not given, cluster symbol, read-out: CBA IC50 cluster
[4] = cluster symbol, cell line of CBA not given (LK35.2-hPD-L1 or 293T-hPD-L1), read-out: CBA IC50 cluster

T2 sequence (Q9NZQ7 19-290): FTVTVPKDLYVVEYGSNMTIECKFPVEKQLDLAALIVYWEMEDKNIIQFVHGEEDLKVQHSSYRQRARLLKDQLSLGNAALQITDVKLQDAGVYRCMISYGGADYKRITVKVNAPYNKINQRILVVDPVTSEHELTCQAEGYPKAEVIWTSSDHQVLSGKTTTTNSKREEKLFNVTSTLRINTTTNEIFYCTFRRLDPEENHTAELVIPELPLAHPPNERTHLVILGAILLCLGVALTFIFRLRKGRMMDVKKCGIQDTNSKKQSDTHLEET
T1 sequence (Q9NZQ7 with tags, fused parts or gaps): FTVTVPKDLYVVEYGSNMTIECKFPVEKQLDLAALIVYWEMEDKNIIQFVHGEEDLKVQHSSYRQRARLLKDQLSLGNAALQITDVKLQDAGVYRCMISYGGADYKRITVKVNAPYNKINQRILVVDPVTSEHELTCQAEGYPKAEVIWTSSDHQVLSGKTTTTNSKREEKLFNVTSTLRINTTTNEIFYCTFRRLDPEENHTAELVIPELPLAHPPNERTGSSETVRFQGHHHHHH

Row | SMILES | IC50 (Human PD-L1/PD-1; [2]) | IC50 [1, 3] | IC50 [1, 4] | IC50 (Human PD-L1/PD-1; numeric value, read-out: HTRF IC50 values) | IC50 ([1]; cell binding assay, cell line not given, numeric value, read-out: CBA IC50 values)
1 | CCCC[C@H]1C(=O)N(C)CC(=O)N[C@@H](CN)C(=O)N[C@@H](C(C)C)C(=O)N(C)[C@@H](Cc2ccccc2)C(=O)N[C@@H](Cc2ccc(O)cc2)C(=O)N(C)CC(=O)N[C@@H](Cc2c[nH]c3ccccc23)C(=O)N[C@@H](Cc2ccc(O)cc2)C(=O)N[C@@H](CC(C)C)C(=O)N[C@H](C(=O)NCC(N)=O)CSCC(=O)N[C@@H](Cc2ccccc2)C(=O)N(C)[C@@H](Cc2ccccc2)C(=O)N1C [Example 3152] ({CH2CO}-F[NMeF][NMeNle][Sar][Dap]V[NMeF]Y[Sar]WYLCG-NH2; thioether N-13) | 6.76 to 30.3 nM |  | 4.78 to 72.9 nM |  | 
2 | CCCC[C@H]1C(=O)N2C[C@@H](O)C[C@@H]2C(=O)N[C@@H](CC(=O)O)C(=O)N[C@@H](C(C)C)C(=O)N(C)[C@@H](Cc2ccccc2)C(=O)N[C@@H](Cc2ccc(O)cc2)C(=O)N(C)CC(=O)N[C@@H](Cc2c[nH]c3ccccc23)C(=O)N[C@@H](Cc2ccc(O)cc2)C(=O)N[C@@H](CC(C)C)C(=O)N[C@H](C(=O)NCC(N)=O)CSCC(=O)N[C@@H](Cc2ccccc2)C(=O)N(C)[C@@H](Cc2ccccc2)C(=O)N1C [Example 3588] ({CH2CO}-F[NMeF][NMeNle][dHyp]DV[NMeF]Y[Sar]WYLCG-NH2; thioether N-13) | 6.76 to 30.3 nM | 0.158 to 4.71 nM |  |  | 
3 | CCCC[C@H]1C(=O)N(C)CC(=O)N[C@@H](CC(=O)O)C(=O)N[C@@H](C(C)C)C(=O)N(C)[C@@H](Cc2ccccc2)C(=O)N[C@@H](Cc2ccc(O)cc2)C(=O)N(C)CC(=O)N[C@@H](Cc2c[nH]c3ccccc23)C(=O)N[C@@H](Cc2ccc(O)cc2)C(=O)N[C@@H](CC(C)C)C(=O)N[C@H](C(=O)NCC(N)=O)CSCC(=O)N[C@@H](Cc2ccc(OC)c(OC)c2)C(=O)N(C)[C@@H](Cc2ccccc2)C(=O)N1C [Example 3102] ({CH2CO}-[Phe(3,4-(OMe)2)][NMeF][NMeNle][Sar]DV[NMeF]Y[Sar]WYLCG-NH2; thioether N-13) | > 30.5 nM |  | > 74.3 nM |  | 
4 | CCCC[C@H]1C(=O)N(C)CC(=O)N[C@@H](CC(=O)O)C(=O)N[C@@H](C(C)C)C(=O)N(C)[C@@H](Cc2ccccc2)C(=O)N[C@@H](Cc2ccc(O)cc2)C(=O)N(C)CC(=O)N[C@@H](Cc2csc3ccccc23)C(=O)N[C@@H](Cc2ccc(O)cc2)C(=O)N[C@@H](CC(C)C)C(=O)N[C@H](C(=O)NCC(N)=O)CSCC(=O)N[C@@H](Cc2cccc(F)c2)C(=O)N(C)[C@@H](Cc2ccccc2)C(=O)N1C [Example 3117] ({CH2CO}-[Phe(3-F)][NMeF][NMeNle][Sar]DV[NMeF]Y[Sar][Bta]YLCG-NH2; thioether N-13) | 6.76 to 30.3 nM |  | 4.78 to 72.9 nM |  | 
5 | CCCC[C@H]1C(=O)N(C)[C@@H](CCCC)C(=O)N[C@@H](CCCNC(=N)N)C(=O)NC(C(=O)NCC(N)=O)CSCC(=O)N[C@@H](Cc2ccc(O)cc2)C(=O)N(C)[C@@H](C)C(=O)N[C@@H](CC(N)=O)C(=O)N2[C@@H](C)CC[C@H]2C(=O)N[C@@H](Cc2cnc[nH]2)C(=O)N[C@@H](CC(C)C)C(=O)N2CCC[C@H]2C(=O)N[C@@H](Cc2c[nH]c3ccccc23)C(=O)N[C@@H](CO)C(=O)N[C@@H](Cc2csc3ccccc23)C(=O)N1C (stereo partly drawn) [Example 9016] ({CH2CO}-Y[NMeA]N[Pro(5S-Me)]HLPWS[Bta][NMeNle][NMeNle]R[ξC]G-NH2; thioether N-14) |  |  |  | 5.94 nM | 3.28 nM

Results, then the compound that gave them:

Row | IC50 (Human PD-L1/PD-1; [2]) | IC50 [1, 3] | IC50 [1, 4] | IC50 (Human PD-L1/PD-1; numeric value, read-out: HTRF IC50 values) | IC50 ([1]; cell binding assay, cell line not given, numeric value, read-out: CBA IC50 values) | SMILES
6 | 0.385 to 6.74 nM | 4.78 to 72.9 nM |  |  |  | CCCC[C@H]1C(=O)N(C)[C@@H](CCCC)C(=O)N[C@@H](CCC(=O)O)C(=O)N[C@H](C(=O)NCC(N)=O)CSCC(=O)N[C@@H](Cc2ccc(O)cc2)C(=O)N(C)[C@@H](C)C(=O)N[C@@H](CC(=O)O)C(=O)N2CCC[C@H]2C(=O)N[C@@H](Cc2c[nH]cn2)C(=O)N[C@@H](CCC(N)=O)C(=O)N2C[C@H](O)C[C@H]2C(=O)N[C@@H](Cc2c[nH]c3ccccc23)C(=O)N[C@@H](CO)C(=O)N[C@@H](Cc2c[nH]c3ccccc23)C(=O)N1C [Example 5088] ({CH2CO}-Y[NMeA]DPHQ[Hyp]WSW[NMeNle][NMeNle]ECG-NH2; thioether N-14)
7 | 0.385 to 6.74 nM | 0.158 to 4.71 nM |  |  |  | CCCC[C@H]1C(=O)N(C)[C@@H](CCCC)C(=O)N[C@@H](CCCNC(=N)N)C(=O)NC(C(=O)NCC(N)=O)CSCC(=O)N[C@@H](Cc2ccc(O)cc2)C(=O)N(C)[C@@H](C)C(=O)N[C@@H](CC(N)=O)C(=O)N2CCC[C@H]2C(=O)N[C@@H](Cc2cnc[nH]2)C(=O)N[C@@H](CC(N)=O)C(=O)N2CCC[C@H]2C(=O)N[C@@H](Cc2c[nH]c3ccccc23)C(=O)N[C@@H](CO)C(=O)N[C@@H](Cc2c[nH]c3ccccc23)C(=O)N1C (stereo partly shown) [Example 9063] ({CH2CO}-Y[NMeA]NPHNPWSW[NMeNle][NMeNle]R[ξC]G-NH2; thioether N-14)
8 | 0.385 to 6.74 nM | 4.78 to 72.9 nM |  |  |  | CCCC[C@H]1C(=O)N(C)[C@@H](CCCC)C(=O)N[C@@H](Cc2ccncc2)C(=O)N[C@H](C(=O)NCC(N)=O)CSCC(=O)N[C@@H](Cc2ccc(O)cc2)C(=O)N(C)[C@@H](C)C(=O)N[C@@H](CC(N)=O)C(=O)N2CCC[C@H]2C(=O)N[C@@H](Cc2cnc[nH]2)C(=O)N[C@@H](CC(C)C)C(=O)N2C[C@H](O)C[C@H]2C(=O)N[C@@H](Cc2c[nH]c3ccccc23)C(=O)N[C@@H](CO)C(=O)N[C@@H](Cc2c[nH]c3ccccc23)C(=O)N1C [Example 7031]
